These are literature values, as cited in patent US20180289421A1, “SYSTEMS AND METHODS FOR TREATING NAIL FUNGUS” (Terimber Corporation, priority 2017, published 2018).

The conditions of series [1]: systemic antifungal therapy.
Series [2] deals with onychomycosis. The settings on record: oral, 12-week course.

In the case of `CCC(C)n1ncn(-c2ccc(N3CCN(c4ccc(OCC5COC(Cn6cncn6)(c6ccc(Cl)cc6Cl)O5)cc4)CC3)cc2)c1=O` (stereo not shown) [Itraconazole], the cardiac toxicity result in series [1] is reported as “may induce cardiac toxicity”.
As to `CN(C/C=C/C#CC(C)(C)C)Cc1cccc2ccccc12` [terbinafine, [(2E)-6,6-dimethylhept-2-en-4-yn-1-yl](methyl)(naphthalen-1-ylmethyl)amine], in series [2], the “maximal clinical response rate” value is given as 60%-70% and the mycologic cure rate is reported as 71%-82%. Besides, in series [1], the liver toxicity result is “can elevate liver enzymes and has progressed to fulminant liver failure”.
